These results are taken from ChEMBL document CHEMBL1201862, “PubChem BioAssay data set” (2004).

Test systems include MDA-MB-435; M14; CAKI-1; HL-60; MOLT-4; TK-10; 786-0; HOP-92; MDA-MB-231; HT-29; RPMI-8226; OVCAR-4; SK-MEL-2; SF-295; A549; Hs-578T; LOX IMVI; NCI-H226; A498.
Holding throughout (assay): NCI-60 cell line screen, 48 h

SMILES strings stand for the structures.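 Cells were grown in 96-well plates and exposed to each compound for 48 hours at five concentrations; endpoints were interpolated linearly between bracketing concentrations, or set to the highest concentration if not reached. Here, GI50 denotes the concentration required for 50% inhibition of growth.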 Calls of active or inactive are those of the source. No stated cut-off is given here; in the data, active = GI50 up to about 1.1 µM and inactive = higher. A value given as a limit tells only on which side of the number the result lay.

For the compound `O=C(/C=C(\S/C=C(/c1ccccc1)N1CCn2c(C(=O)c3ccccc3)c(C(=O)c3ccccc3)c(C(=O)c3ccccc3)c21)C(=O)c1ccccc1)c1ccccc1`, the GI50 in the assay with MDA-MB-435, in the assay with M14, in the assay with CAKI-1, in the assay with HL-60, with MOLT-4 and in the assay on TK-10 was > 10 µM (inactive) in each case. Besides, the GI50 with 786-0, in the assay with HOP-92, in the assay with MDA-MB-231, in the assay on HT-29, in the assay on RPMI-8226 and in the assay with OVCAR-4 was > 10 µM (inactive) throughout. In addition, the GI50 in the assay on SK-MEL-2, in the assay with SF-295, in the assay on A549 and in the assay on Hs-578T was > 10 µM (inactive) throughout.

`CC(=O)Oc1ccc2c(c1OC(C)=O)CCC1C2=CC[C@]2(C)C(=O)CCC12` (some centres not stated): the GI50 with MDA-MB-435 is 4.45 µM (inactive); in the assay with M14, 12.5 µM (inactive); with CAKI-1, 6.07 µM (inactive); in the assay on HL-60, 6.89 µM (inactive); in the assay with MOLT-4, 3.3 µM (inactive); in the assay with TK-10 it was 13.9 µM (inactive). Besides, the GI50 is 2.47 µM (inactive) in the assay on 786-0; 5.15 µM (inactive) in the assay on HOP-92; 14.3 µM (inactive) in the assay on MDA-MB-231; 17.6 µM (inactive) with HT-29; 1 µM (active) in the assay on RPMI-8226; 3.36 µM (inactive) with OVCAR-4. Moreover, the GI50 is 15.1 µM (inactive) with SK-MEL-2, 12.9 µM (inactive) with SF-295, 16 µM (inactive) in the assay on A549 and 19.6 µM (inactive) with Hs-578T.

On to `C[n+]1c2ccc(Cl)cc2nc2cc(-c3ccccc3)ccc21`, for which the GI50 in the assay with MDA-MB-435 is 1.77 µM (inactive); in the assay with M14, 4.65 µM (inactive); with LOX IMVI, 5.69 µM (inactive); in the assay with CAKI-1 it was 16.4 µM (inactive); with HL-60 it was 3.06 µM (inactive); in the assay with MOLT-4 it was 1.61 µM (inactive). Also, the GI50 in the assay with TK-10 is 22.8 µM (inactive); with 786-0, 35.3 µM (inactive); with MDA-MB-231, 8.63 µM (inactive); in the assay on HT-29 it was 2.9 µM (inactive); in the assay with RPMI-8226 it was 1.93 µM (inactive); in the assay on OVCAR-4, 18.5 µM (inactive). Besides, the GI50 was 19.8 µM (inactive) in the assay with SK-MEL-2; 1.74 µM (inactive) in the assay with SF-295; 4.81 µM (inactive) with A549; 25.5 µM (inactive) with Hs-578T; 19.1 µM (inactive) in the assay with NCI-H226.

In the case of `COc1ccccc1C1CC(=O)CC(c2ccccc2OC)C12C(=O)NC(=S)NC2=O` (configuration not stated), the GI50 in the assay with MDA-MB-435 is 25.4 µM (inactive); with M14, 88.3 µM (inactive); in the assay with LOX IMVI, 33.1 µM (inactive); in the assay with CAKI-1, 68.9 µM (inactive); in the assay with HL-60, 9.93 µM (inactive); with MOLT-4, 35.7 µM (inactive). Moreover, the GI50 with TK-10 was > 100 µM (inactive); in the assay with 786-0, > 100 µM (inactive); in the assay with HOP-92, 43.3 µM (inactive); with MDA-MB-231, 38.4 µM (inactive); in the assay with HT-29, 73.8 µM (inactive); with RPMI-8226, 19.9 µM (inactive). Further, the GI50 in the assay with OVCAR-4 is 99.8 µM (inactive); in the assay on SK-MEL-2 it was 73.8 µM (inactive); in the assay with SF-295, > 100 µM (inactive); in the assay on NCI-H226 it was > 100 µM (inactive).

Regarding `CC(C)(C)OC/C=C(\Br)CO`, the GI50 with MDA-MB-435, with M14, in the assay on CAKI-1, with MOLT-4, in the assay on 786-0 and with MDA-MB-231 was > 100 µM (inactive) in each case. For the same compound, the GI50 in the assay with HT-29, in the assay on RPMI-8226, with OVCAR-4, in the assay with SK-MEL-2, in the assay with A498 and in the assay with SF-295 was > 100 µM (inactive) throughout. Moreover, the GI50 in the assay with A549 and with NCI-H226 was > 100 µM (inactive) in each case.

In the case of `CCCCCC(/C=C/C1CCC(=O)C1)OCOCCOC` (configuration not stated), the GI50 with MDA-MB-435 was 33.2 µM (inactive); with M14, 34 µM (inactive); in the assay with LOX IMVI it was 24.3 µM (inactive); with CAKI-1, 31.5 µM (inactive); in the assay on HL-60 it was 42.1 µM (inactive); with MOLT-4, 15.8 µM (inactive). For the same compound, the GI50 was 37.2 µM (inactive) with TK-10; 19.3 µM (inactive) in the assay with 786-0; 24.2 µM (inactive) in the assay on HOP-92; 69.8 µM (inactive) with MDA-MB-231; 23.4 µM (inactive) in the assay with HT-29; 21.6 µM (inactive) in the assay with RPMI-8226. In addition, the GI50 in the assay on OVCAR-4 is 47.9 µM (inactive); in the assay on SK-MEL-2 it was 64.6 µM (inactive); in the assay on A498, 48.2 µM (inactive); in the assay on SF-295, > 58.7 µM (inactive); in the assay on A549, 59.7 µM (inactive); in the assay on NCI-H226, 29.1 µM (inactive).

On to `Cc1ccccc1-c1nc2c(N)nc(N)nc2nc1N`, for which the GI50 was 5.36 µM (inactive) in the assay on MDA-MB-435; > 100 µM (inactive) with M14; 3.44 µM (inactive) in the assay with LOX IMVI; 9.35 µM (inactive) in the assay with CAKI-1; > 100 µM (inactive) in the assay with HL-60; 3.77 µM (inactive) in the assay with MOLT-4. In addition, the GI50 is > 100 µM (inactive) in the assay with TK-10; 7.23 µM (inactive) in the assay on 786-0; 3.3 µM (inactive) in the assay on MDA-MB-231; > 100 µM (inactive) in the assay with HT-29; > 100 µM (inactive) in the assay with RPMI-8226; > 100 µM (inactive) with OVCAR-4. Further, the GI50 with SK-MEL-2 is > 100 µM (inactive); in the assay on SF-295, 12.8 µM (inactive); in the assay on A549, 3.22 µM (inactive); in the assay on Hs-578T, > 100 µM (inactive).

Regarding `CC(C)[C@@H]1NC(=O)[C@H]2N=C(O[C@@H]2C)[C@@H]2CCCN2C(=O)[C@H](Cc2ccccc2)NC(=O)[C@@H]2CSC(=N2)[C@@H](Cc2ccccc2)NC(=O)[C@@H]2CSC1=N2`, the GI50 in the assay with MDA-MB-435 was 36.4 µM (inactive); in the assay with M14 it was > 50 µM (inactive); in the assay with LOX IMVI, 23.7 µM (inactive); with CAKI-1, > 50 µM (inactive); in the assay on HL-60, 7.46 µM (inactive); in the assay with MOLT-4, 26.8 µM (inactive). The GI50 in the assay with TK-10 is > 50 µM (inactive); in the assay with 786-0 it was > 50 µM (inactive); in the assay on MDA-MB-231, > 50 µM (inactive); with HT-29, 38.8 µM (inactive); in the assay on RPMI-8226, 9.29 µM (inactive); in the assay on OVCAR-4 it was 19.8 µM (inactive). The GI50 with SK-MEL-2 is > 50 µM (inactive); in the assay on SF-295, 34.6 µM (inactive); with A549, 18.7 µM (inactive); with Hs-578T it was 32.8 µM (inactive); in the assay on NCI-H226, 38.5 µM (inactive).

Regarding `CC1(C)[C@@H]2C[C@H]1c1cnc(-c3ccccn3)cc1C2CCCCC[C@@H]1c2cc(-c3ccccn3)ncc2[C@@H]2C[C@H]1C2(C)C` (some centres not stated), the GI50 was 1.38 µM (inactive) in the assay with MDA-MB-435; 1.61 µM (inactive) in the assay on M14; 0.625 µM (active) with LOX IMVI; 0.628 µM (active) in the assay with CAKI-1; 0.426 µM (active) in the assay with HL-60; 0.357 µM (active) in the assay with MOLT-4. Moreover, the GI50 is > 49.2 µM (inactive) with TK-10; 0.493 µM (active) in the assay with 786-0; 8.15 µM (inactive) with MDA-MB-231; 0.759 µM (active) in the assay with HT-29; 2.51 µM (inactive) with RPMI-8226; 0.384 µM (active) in the assay on OVCAR-4. For the same compound, the GI50 is 7.1 µM (inactive) in the assay on SK-MEL-2; 3.5 µM (inactive) in the assay with A498; 0.871 µM (active) in the assay on SF-295; 0.869 µM (active) in the assay with A549; 1.23 µM (inactive) with NCI-H226.
